Assays:
[1] = test system: persistent edema due to neovascular AMD; test: Example 2: randomized, subject-masked trial of intravitreal sirolimus plus anti-VEGF (aflibercept) versus anti-VEGF alone (OCT CST and BCVA); format: in vivo, human
Source text: This study was a single-center, randomized, subject-masked trial over the course of […] with eleven scheduled visits. Study Population. Twenty human patients, who were 50 years of age or older at baseline were recruited according to the following inclusion and exclusion criteria. If both eyes met all of the inclusion/exclusion criteria the eye with the best potential for visual improvement (worse BCVA) at baseline was selected as the study eye. If both eyes met all of the inclusion/exclusion criteria and BCVA values were identical for both eyes, the right eye was selected as the study eye. Study Treatment (Group 1). […] Intravitreal injections of EYL (aflibercept) given at weeks 1, 8, 16, 24 and 32. […] Comparator Treatment (Group 2). Intravitreal injection of EYL (aflibercept) given at baseline and weeks 8, 16, 24 and 32. […] Both intraocular pressure and the perfusion of the optic nerve head were monitored and managed appropriately after injection. […] Retreatment Criteria: Subjects in both groups received retreatment (or sham) at each scheduled visit as long as continued subretinal edema, intraretinal edema or active choroidal neovascularization was present. change in edema from baseline to week 36 as measured by CST on Heidelberg OCT. change in BCVA from baseline to week 36; and number of injections required to control choroidal neovascularization based on volume of subretinal fluid.

[2] = test system: exudative AMD with persistent intraretinal or subretinal edema despite previous intravitreal anti-VEGF treatment; test: Example 1: randomized, subject-masked trial of intravitreal sirolimus versus anti-VEGF (OCT CST and BCVA); format: in vivo, human; details: baseline to months 3-6, subjects who completed the study through month 6, FIG. 2 and FIG. 4
Source text: This study was a single-center, randomized, subject-masked trial over the course of six months with eight scheduled visits. Study Population. Thirty human patients, who were 50 years of age or older at baseline were recruited according to the following inclusion and exclusion criteria. If both eyes met all of the inclusion/exclusion criteria the eye with the worse BCVA at baseline was selected as the study eye. If both eyes met all of the inclusion/exclusion criteria and BCVA values were identical for both eyes, the right eye was selected as the study eye. Study Treatment (Group 1). […] Sham intravitreal injection given at month 1, month 3 and month 5. […] Intravitreal injection of anti-VEGF per patient/investigator choice (pegaptanib, aflibercept, bevacizumab or ranibizumab) given at baseline and thereafter monthly per clinical criteria. Sham intravitreal injections given when retreatment criterion was not met at month 1 or any later visit. […] Both intraocular pressure and the perfusion of the optic nerve head were monitored and managed appropriately after injection. […] The primary efficacy endpoint includes change in edema from baseline to month 6 as measured by CST on Heidelberg OCT. change in BCVA from baseline to month 6; Continuous variables will be summarized with means and standard deviations and medians with min and max values and categorical variables with frequencies and percentages. […]

Row | Compound | subjects in whom the need for anti-VEGF treatment to control edema was reduced ([1]; combination group, ten patients, EYL injections deferred (sham)) | average change in edema from baseline (central subfield thickness, CST, by OCT) [2] | improvement in visual acuity (BCVA) ([1]; change from baseline, FIG. 5)
1 | CO[C@H]1C[C@@H]2CC[C@@H](C)[C@@](O)(O2)C(=O)C(=O)N2CCCC[C@H]2C(=O)O[C@H]([C@H](C)C[C@@H]2CC[C@@H](O)[C@H](OC)C2)CC(=O)[C@H](C)/C=C(\C)[C@@H](O)[C@@H](OC)C(=O)[C@H](C)C[C@H](C)/C=C/C=C/C=C/1C [sirolimus] | 40% | −30 to −40 | –
2 | aflibercept [EYL] | – | – | +0.8 letters

Source: US11400080B2, “Use of sirolimus to treat exudative age-related macular degeneration with persistent edema” (Santen Pharmaceutical Co., Ltd., priority 2016, dated 2022)
